From patent US20130225641A1, “ANTICANCER COMPOUNDS AND PREPARATION METHODS THEREOF” (priority 2010, published 2013) come the findings set out here.

Bounds are passed on as bounds.

In data set [1] the test system is LoVo. The experiment in a line: MTT cytotoxicity, LoVo. It is filed as cell-based. To be noted: Homo sapiens, Colonic, 72 hrs, read-out: LC50 (the source's name). On the procedure:
(§1) The cytotoxicity of ZTP and ZTQ was analyzed by using human tumor cell lines. Human tumor cell lines were purchased from ATCC and NCI, and cultured in DMEM medium containing 10% FBS at 37° C. in 5% CO2 in an incubator. The cells grown to confluence were used for cytotoxicity analysis. The cells were digested with trypsin, washed with the culture medium, and then counted. 33 tumor cell lines were cultured. The cells were seeded at a density of 3000-6000 cells/well in a 96-well plate and incubated for 16-24 hrs. Then, various concentrations of ZTP or ZTQ dissolved in DMSO were added, and cultured for 72 hrs. The drug-treated cells and control cells were analyzed by MTT.

For data set [2], the system named is CNE-2Z. The experiment in a line: MTT cytotoxicity, CNE-2Z. The format is cell-based. The conditions noted are these: Homo sapiens, CNE2Z, Nasopharyngeal, 72 hrs, read-out: LC50 (the source's name). On the procedure: as §1
Data set [3] concerns SKOV3. The experiment in a line: MTT cytotoxicity, SKOV3. The conditions noted are these: Homo sapiens, SK-OV-3, SKOV3, Ovarian, 72 hrs, read-out: LC50 (the source's name). The format is cell-based. On the procedure:
as §1

Data set [4] concerns CCL-247. The experiment in a line: MTT cytotoxicity, CCL-247. The format is cell-based. The conditions noted are these: Homo sapiens, CCL-247, Colonic, 72 hrs, read-out: LC50 (the source's name). The procedure:
as §1

Data set [5] relates to Widr. The experiment in a line: MTT cytotoxicity, Widr. To be noted: Homo sapiens, Colonic, 72 hrs, read-out: LC50 (the source's name). It is filed as cell-based. On the procedure:
as §1

Data set [6] in a line: MTT cytotoxicity, MCF-10a normal mammary epithelial cell. It is filed as cell-based, human. The conditions noted are these: human, MCF-10a normal mammary epithelial cells; MCF-10a, Normal mammary epithelial cell; 72 hrs, MTT; read-out: LC50. The procedure: [Worded in the source for another cell line; this cell line is reported under the same test.] as §1
Data set [7] concerns MCF-10a. Described as above. The conditions noted are these: cells still grow well at a concentration up to 30 μm. The format is cell-based, human. The procedure:
[Worded in the source for another cell line; this cell line is reported under the same test.] as §1

Data set [8] can be described thus: Pharmacokinetic study in mice. It is filed as in vivo. To be noted: both sexes, mouse, po, BALB/c mice, single dose of 100 mg/kg orally by gavage, plasma, Mean +/− SD; for half-life: read-out: T½ (converted). On the procedure:
BALB/c mice (2 males and 2 females) of 8 weeks old were administered with the compounds ZTP and ZTQ (formulated with 15% Captsol or a carrier) at a single dose of 100 mg/kg. 0.5, 1, 3, 6, 12, 24, 48, and 72 hrs after administration, blood was taken from ophthalmic vein and plasma was prepared therefrom, to determine the plasma concentrations of ZTP and ZTQ. The pharmacokinetic parameters of the compounds ZTP and ZTQ given orally by gavage in the 4 mice are summarized as below (Tables 2 and 3): […]

Data set [9] has as its system VEGFR protein kinase. The experiment in a line: Inhibition of VEGFR protein kinase activity (phosphorylated VEGFR, western blotting) in HUMEC cells. The format is cell-based, human. The conditions noted are these: 1 hour treatment, phosphorylated VEGFR level, read-out: median inhibitory concentration (IC50) for inhibiting the activity of VEGFR protein kinase. From the text:
VEGFR is a vascular endothelial growth factor receptor regulating the growth, migration, and differentiation of vascular endothelial cells, and determining the start of angiogenesis of tumors. After being stimulated by vascular endothelial cell growth factors, VEGFR forms a dimer, activates its kinase, and makes themselves phosphorylated. The level of the activity of VEGFR protein kinase is detected according to the phosphorylated degree of VEGFR. In this test, we used human microvascular endothelial cells (HUMECs) to determine whether ZTP and ZTQ can inhibit the activity of VEGFR protein kinase. HUMEC cells were subjected to adherent growth in DMEM medium (GIBCO-BRL) containing 10% bovine calf serum at 37° C. in 5% CO2. The cells were treated with various concentrations of ZTP and ZTQ (0, 10 ng/ml, 100 ng/ml, 500 ng/ml, 1 μg/ml, and 10 μg/ml), and the cell proteins were collected 1 hour after treatment. The protein content was determined through Bradford method, and then the level of phosphorylated VEGFR was assayed through western blotting. Immunoblotting experiment: denatured polyacrylamide gel was used for separation of the proteins with a sample load of 60 μg of total proteins. The proteins were electro-transferred onto a PVDF membrane and blocked. […] The membrane was exposed to an X-ray film, and the results were analyzed by a gel imaging system. […]

Data set [10] relates to HT29. The experiment in a line: MTT cytotoxicity, HT29. To be noted: Homo sapiens, HT-29, HT29, Colonic, 72 hrs, read-out: LC50 (the source's name). The format is cell-based. The procedure:
as §1

In data set [11] the test system is MCF-7. The experiment in a line: MTT cytotoxicity, MCF-7. It is filed as cell-based. The conditions noted are these: Homo sapiens, MCF7, MCF-7, Breast, 72 hrs, read-out: LC50 (the source's name). The procedure:
as §1

For data set [12], the system named is AU-565. The experiment in a line: MTT cytotoxicity, AU-565. It is filed as cell-based. To be noted: Homo sapiens, AU565, AU-565, Breast, 72 hrs, read-out: LC50 (the source's name). On the procedure: as §1
The subject of data set [13] is Mid PaCa-2. The experiment in a line: MTT cytotoxicity, Mid PaCa-2. It is filed as cell-based. The conditions noted are these: Homo sapiens, Mid PaCa-2, Pancreatic, 72 hrs, read-out: LC50 (the source's name). The procedure: as §1
Data set [14] concerns A549. The experiment in a line: MTT cytotoxicity, A549. To be noted: Homo sapiens, A549, Lung, 72 hrs, read-out: LC50 (the source's name). The format is cell-based. The procedure: as §1
The test system of data set [15] is MDA-MB-231. The experiment in a line: MTT cytotoxicity, MDA-MB-231. The format is cell-based. To be noted: Homo sapiens, MDA-MB-231, Breast, 72 hrs, read-out: LC50 (the source's name). The procedure: as §1
The test system of data set [16] is SGC-7901. The experiment in a line: MTT cytotoxicity, SGC-7901. It is filed as cell-based. To be noted: Homo sapiens, SGC-7901, Gastric, 72 hrs, read-out: LC50 (the source's name). On the procedure: as §1
In data set [17] the test system is MDA-MB-435. The experiment in a line: MTT cytotoxicity, MDA-MB-435. The format is cell-based. To be noted: Homo sapiens, MDA-MB-435, Breast, 72 hrs, read-out: LC50 (the source's name). On the procedure:
as §1

In data set [18] the test system is CCL-225. The experiment in a line: MTT cytotoxicity, CCL-225. The format is cell-based. The conditions noted are these: Homo sapiens, CCL-225, Colonic, 72 hrs, read-out: LC50 (the source's name). The procedure:
as §1

The subject of data set [19] is D145. The experiment in a line: MTT cytotoxicity, D145. It is filed as cell-based. The conditions noted are these: Homo sapiens, D145, Prostatic, 72 hrs, read-out: LC50 (the source's name). On the procedure: as §1

Consider `CNC(=O)c1cc(Sc2ccc(NC(=S)Nc3ccc(Cl)c(C(F)(F)F)c3)cc2)ccn1` [ZTQ, N-[4-chloro-3-(trifluoromethyl)phenyl]-[4-(N-methyl-formamide)(4-pyridylthio)phenyl]-thiourea], for which the CC50 in data set [1] was 1.1 µM; in [2] it was 1.31 µM; in data set [3], 0.98 µM; in data set [4], 1.7 µM; in data set [5] it was 0.81 µM; in [10] it was 0.92 µM. Besides, the CC50 in [11] was determined as 1.7 µM; in [12], 1.37 µM; in [13], 0.91 µM; in data set [14] it was 1.01 µM; in data set [15], 1.03 µM; in data set [16], 1.03 µM. Further, the CC50 in data set [17] came to 1.12 µM; in data set [18], 1.43 µM; in data set [19], 1.23 µM. The CC50 at 72 h in data set [6] is more than 30 µM. Besides, the “susceptibility of normal human mammary epithelial cells (MCF-10a)” value in data set [7] is on record as “insusceptible”. This compound also came in with a Cmax in [8] of 52 µM. In data set [8], the Tmax turned out to be 6.6 h. Besides, the half-life in data set [8] was 4.2 h. Besides, the IC50 in data set [9] was found to be 0.009 µM.

`CNC(=O)c1cc(Oc2ccc(NC(=S)Nc3ccc(Cl)c(C(F)(F)F)c3)cc2)ccn1` [ZTP, N-[4-chloro-3-(trifluoromethyl)phenyl]-[4-(N-methyl-formamide)(4-pyridyloxy)phenyl]-thiourea]: the CC50 came to 1.31 µM in data set [1]; 1.89 µM in data set [2]; 1.19 µM in data set [3]; 2.41 µM in [4]; 0.95 µM in data set [5]; 1.19 µM in data set [10]. Besides, the CC50 in data set [11] was 2.21 µM; in data set [12], 1.89 µM; in data set [13], 1.25 µM; in [14], 1.22 µM; in [15], 1.19 µM; in data set [16] it was 1.31 µM. Further, the CC50 worked out at 1.37 µM in data set [17], 1.98 µM in [18] and 1.59 µM in data set [19]. Moreover, the CC50 at 72 h in data set [6] is more than 30 µM. The “susceptibility of normal human mammary epithelial cells (MCF-10a)” value in [7] is listed as “insusceptible”. In data set [8], this compound displayed a Cmax of 51 µM. Also, the Tmax in data set [8] amounted to 6.4 h. The half-life in data set [8] was 4.1 h. Besides, in [9], the IC50 amounted to 0.021 µM.
